The test system of test [1] is MSSE 16-5. The test is described as follows: MIC, agar dilution, MSSE 16-5 (clinical isolate). The format is cell-based, S. epidermidis. The following applies: Staphylococcus epidermidis; MSSE 16-5, isolated from patients in China; read-out: MIC. A general note: Agar dilution tests growth on a series of plates holding different concentrations.
Test [2] has as its system VISA ATCC 700699. As to the kind of experiment: MIC, agar dilution, VISA ATCC 700699. The format is cell-based. The note with it: Staphylococcus aureus; VISA ATCC 700699; read-out: MIC.
The subject of test [3] is MRSE 13-3. The test is described as follows: MIC, agar dilution, MRSE 13-3. The format is cell-based, S. epidermidis. The following applies: Staphylococcus epidermidis; MRSE 13-3; read-out: MIC.
Test [4] deals with MSSE ATCC 12228. The test is described as follows: MIC, agar dilution, MSSE ATCC 12228. The format is cell-based, S. epidermidis. The note with it: Staphylococcus epidermidis, ATCC12228; MSSE ATCC 12228; read-out: MIC.
Test [5] relates to MSSA ATCC 29213. As to the kind of experiment: MIC, agar dilution, MSSA ATCC 29213. The format is cell-based, S. aureus. The note with it: Staphylococcus aureus; MSSA ATCC 29213; read-out: MIC.
Test [6] deals with MRSA ATCC -BAA-976. The test is described as follows: MIC, agar dilution, MRSA ATCC-BAA-976 (clindamycin-resistant). The format is cell-based. The following applies: Staphylococcus aureus; MRSA ATCC-BAA-976, clindamycin-resistant S. aureus; read-out: MIC.
For test [7], the system named is MSSA 16-1. The test is described as follows: MIC, agar dilution, MSSA 16-1 (clinical isolate). The format is cell-based, S. aureus. The note with it: Staphylococcus aureus; MSSA 16-1, isolated from patients in China; read-out: MIC.
In test [8] the test system is S.s ATCC 15305. The test is described as follows: MIC, agar dilution, S.s ATCC 15305. The format is cell-based. The note with it: Staphylococcus saprophyticus, ATCC15305; S. saprophyticus ATCC 15305; read-out: MIC.
The test system of test [9] is MRSA ATCC-B AA-1708. The test is described as follows: MIC, agar dilution, MRSA ATCC-BAA-1708 (mupA positive). The format is cell-based. The following applies: Staphylococcus aureus; MRSA ATCC-BAA-1708, mupA positive (mupirocin resistance); read-out: MIC.
In test [10] the test system is MRSA ATCC 43300. As to the kind of experiment: MIC, agar dilution, MRSA ATCC 43300. The format is cell-based. The note with it: Staphylococcus aureus; MRSA ATCC 43300; read-out: MIC.
In test [11] the test system is MRSA 16-34. As to the kind of experiment: MIC, agar dilution, MRSA 16-34. The format is cell-based. The following applies: Staphylococcus aureus; MRSA 16-34; read-out: MIC.
Test [12] concerns S.h ATCC 35982. The test is described as follows: MIC, agar dilution, S.h ATCC 35982. The format is cell-based. The note with it: Staphylococcus hominis, ATCC35982; S. hominis ATCC 35982; read-out: MIC.
Test [13] relates to VISA ATCC 700698. As to the kind of experiment: MIC, agar dilution, VISA ATCC 700698. The format is cell-based. The note with it: Staphylococcus aureus; VISA ATCC 700698; read-out: MIC.
Test [14] concerns MRSA 13-18. As to the kind of experiment: MIC, agar dilution, MRSA 13-18. The format is cell-based. The following applies: Staphylococcus aureus; MRSA 13-18; read-out: MIC.
Test [15] relates to MRSE 16-5. The test is described as follows: MIC, agar dilution, MRSE 16-5. The format is cell-based, S. epidermidis. The note with it: Staphylococcus epidermidis; MRSE 16-5; read-out: MIC.
The test system of test [16] is MSSA 15. As to the kind of experiment: MIC, agar dilution, MSSA 15 (clinical isolate). The format is cell-based, S. aureus. The note with it: Staphylococcus aureus; MSSA 15, isolated from patients in China; read-out: MIC.
Test [17] relates to MRSA 13-23. The test is described as follows: MIC, agar dilution, MRSA 13-23. The following applies: Staphylococcus aureus; MRSA 13-23; read-out: MIC. The format is cell-based.

In general, MIC refers to the least concentration at which growth counts as inhibited.

SMILES strings stand for the structures.

`COc1ccc2c(c[n+]3ccc4cc5c(c6c(Cc7ccc(C(C)(C)C)cc7)cc2c3c46)OCO5)c1O` [13k, 1,2-Methylenedioxy-8-hydroxy-9-methoxy-13-p-tert-butylmethylbenzylcyclo berberine chloride]: the MIC was 8 µg/mL in test [1]; 32 µg/mL in test [2]; 8 µg/mL in test [3]; 16 µg/mL in test [4]; 32 µg/mL in test [5]; 16 µg/mL in test [6]. In addition, the MIC is 16 µg/mL in test [7]; 32 µg/mL in test [8]; 8 µg/mL in test [9]; 32 µg/mL in test [10]; 16 µg/mL in [11]; 32 µg/mL in test [12]. The MIC in test [13] was found to be 32 µg/mL; in test [14], 16 µg/mL; in test [15] it was 8 µg/mL; in [16], 32 µg/mL; in test [17], 32 µg/mL.

As for `COc1ccc2c(c[n+]3ccc4cc5c(c6c(Cc7ccc(OC(F)(F)F)cc7)cc2c3c46)OCO5)c1O` [13l, 1,2-Methylenedioxy-8-hydroxy-9-methoxy-13-p-trifluoromethoxybenzylcyclo berberine chloride], the MIC in test [1] worked out at 32 µg/mL; in test [2], 32 µg/mL; in test [3], 32 µg/mL; in [4] it was 32 µg/mL; in [5], 32 µg/mL; in [6], 64 µg/mL. Further, the MIC in test [7] was 32 µg/mL; in test [8], 64 µg/mL; in test [9], 32 µg/mL; in test [10] it was 64 µg/mL; in test [11], 32 µg/mL; in test [12] it was 64 µg/mL. In addition, the MIC worked out at 64 µg/mL in test [13]; 32 µg/mL in test [14]; 32 µg/mL in test [15]; 32 µg/mL in [16]; 32 µg/mL in test [17].

Consider `COc1ccc2c(c[n+]3ccc4cc5c(c6c(Cc7ccccc7C#N)cc2c3c46)OCO5)c1O` [13m, 1,2-Methylenedioxy-8-hydroxy-9-methoxy-13-o-cyanbenzylcycloberberine chloride], for which the MIC in test [1], in test [2], in test [3], in test [4], in test [5] and in test [6] was greater than 64 µg/mL in each case. Further, the MIC in [7], in test [8], in test [9], in test [10], in test [11] and in test [12] was greater than 64 µg/mL in each case. The MIC in test [13], in [14], in test [15], in test [16] and in [17] was greater than 64 µg/mL throughout.

As for `COc1ccc2c(c[n+]3ccc4cc5c(c6c(Cc7cccc(C#N)c7)cc2c3c46)OCO5)c1O` [13n, 1,2-Methylenedioxy-8-hydroxy-9-dimethoxy-13-m-cyanbenzylcycloberberine chloride], the MIC in test [1] is 32 µg/mL; in test [2], greater than 64 µg/mL; in [3] it was 64 µg/mL; in test [4], 16 µg/mL; in [5] it was greater than 64 µg/mL; in test [6], greater than 64 µg/mL. Also, the MIC is greater than 64 µg/mL in test [7]; greater than 64 µg/mL in test [8]; greater than 64 µg/mL in [9]; greater than 64 µg/mL in test [10]; greater than 64 µg/mL in test [11]; 64 µg/mL in test [12]. Also, the MIC is greater than 64 µg/mL in [13]; greater than 64 µg/mL in [14]; 32 µg/mL in test [15]; greater than 64 µg/mL in test [16]; greater than 64 µg/mL in [17].

Regarding `COc1ccc2c(c[n+]3ccc4cc5c(c6c(Cc7cccc([N+](=O)[O-])c7)cc2c3c46)OCO5)c1O` [13q, 1,2-Methylenedioxy-8-hydroxy-9-methoxy-13-m-nitrobenzylcycloberberine chloride], the minimum inhibitory concentration (MIC) is 32 µg/mL in [1]; 64 µg/mL in test [2]; 64 µg/mL in [3]; 64 µg/mL in [4]; greater than 64 µg/mL in test [5]; 64 µg/mL in [6]. In addition, the MIC in test [7] is 64 µg/mL; in [8] it was greater than 64 µg/mL; in [9] it was greater than 64 µg/mL; in test [10] it was greater than 64 µg/mL; in [11], greater than 64 µg/mL; in test [12], 64 µg/mL. The minimal inhibitory concentration (MIC) was greater than 64 µg/mL in test [13]; greater than 64 µg/mL in test [14]; 32 µg/mL in test [15]; greater than 64 µg/mL in [16]; greater than 64 µg/mL in test [17].

The values are drawn from publication PMC6429263, “Evolution and Antibacterial Evaluation of 8-Hydroxy-cycloberberine Derivatives as a Novel Family of Antibacterial Agents Against MRSA” (Molecules, 2019).
